Legend:
[1] = system: two human HCC cell lines (HEP3B and SNU475); assay: Protein expression by western blotting/confocal microscopy, two human HCC cell lines; format: cell-based; conditions: two Human HCC cells exposed to digoxin
Method: (§1) In-vitro studies: cell lines and cell culture. Human HCC cell lines (HEP3B and SNU475 from ATCC, Cambridge, Mass.) were checked regularly for Mycoplasma contamination using RT-PCR kit while growing in culture with high glucose DMEM media supplemented with 10% FBS and 1% Penicillin/Streptomycin (HEP3), or with RPMI 1640 media supplemented with 10% heat inactivated FBS and 1% Penicillin/Streptomycin (SNU475) in 37° C. humidified incubator in presence of CO2 at 5%.
Confocal microscopy assessment on Immuno-stained cells/liver tissue. For in vitro studies, immunocytochemistry was performed on both human HCC cell lines as previously described. Briefly, the treated for 4 hours cells and the untreated cells were plated on glass coverslips and allowed to reach 70% confluency. […] Next day, slides were incubated with secondary antibodies (Alexa Fluor 488 or 549) and mounted with Vectashield mounting media on slides containing DAPI (Vector Laboratories, Inc., H-1800).
Western Blotting. […] Blocked membranes were incubated with the specific primary/secondary antibodies for protein signals to be detected by the Pierce ECL kit (Thermo Fisher Scientific, Waltham, Mass.), and quantified using ImageJ software.

[2] = system: two human HCC cell lines (HEP3B and SNU475); assay: MTT cell proliferation assay, two human HCC cell lines; format: cell-based; conditions: PI3K/Akt pathway inhibitors on two human HCC cell lines
Method: as §1
MTT Cell proliferation assay was performed by plating 5000 cells/well in 6 wells (per condition) of 96 well plates and allowed to adhere for 24 hours, when media was replaced with media±treatment agent for another 24 hours to finally assess cell proliferation according to the manufacturer's instructions (MTT assay, from #ATCC® 30-1010K, Cambridge, Mass.). Digoxin was dissolved in serum free media before addition to cells at designated concentrations.

SMILES	expression of survivin [1]	cell proliferation (MTT assay) [2]
C[C@H]1O[C@@H](O[C@H]2[C@@H](O)C[C@H](O[C@H]3[C@@H](O)C[C@H](O[C@H]4CC[C@@]5(C)[C@H](CC[C@@H]6[C@@H]5C[C@@H](O)[C@]5(C)[C@@H](C7=CC(=O)OC7)CC[C@]65O)C4)O[C@@H]3C)O[C@@H]2C)C[C@H](O)[C@@H]1O [digoxin]	increased the expression of survivin	–
N#C/C(=C/c1ccc(O)c(O)c1)C(=O)NCc1ccccc1 [AG490]	–	inhibited cell proliferation
CC(C)(C)n1nc(-c2ccc(Cl)cc2)c2c(N)ncnc21 [PP2]	–	inhibited cell proliferation
